l = locked nucleic acid (LNA); d = 2'-deoxy (DNA)
Experiments:
PR8 (H1N1) virus = assay type: cell-based, Influenza A/PR/8/34 (PR8) H1N1 virus
[1] = tested on: A/Hong Kong/8/68 (HK68) (H3N2) virus; assay type: cell-based, Influenza A/Hong Kong/8/68 (HK68) H3N2 virus
wild-type PR8 virus = tested on: wild-type PR8 virus; parameters: species or system Balb/C female mice; conditions: mouse, in vivo

“AGAcagcgaccaaAAG (AGACAGCGACCAAAAG; antisense; sugars from the 5' end l3 d10 l3, backbone and methylation of C not given here) [LNA8a]” was tested, and the “drop in viral production (antiviral activity)” value (“drop in viral production” below) (PR8 (H1N1) virus) was “up to 3 logs” and the “drop in viral production” value [1] was “up to 3 logs”.
“AccAaaAGaaT (ACCAAAAGAAT; antisense; sugars from the 5' end lddlddllddl, backbone and methylation of C not given here) [LNA1]” was tested, and the “effect on viral titer / viral production” value (PR8 (H1N1) virus) was “little to no effect” and the “effect on viral titer / viral production” value [1] was “little to no effect”.
In the case of CATACTTA [LNA5], the “effect on viral titer / viral production” value (PR8 (H1N1) virus) is reported as “failed to inhibit viral production” and the “effect on viral titer / viral production” value [1] is reported as “failed to inhibit viral production”.
CCAAAAGA [LNA4] was tested, and the “effect on viral titer / viral production” value (PR8 (H1N1) virus) was “little to no effect” and the “effect on viral titer / viral production” value [1] was “little to no effect”.
For “CagaCaCGaCCaaAA (CAGACACGACCAAAA; antisense; sugars from the 5' end ldddldlldllddll, backbone and methylation of C not given here) [LNA6]”, the titer deficits (PR8 (H1N1) virus) was “greater than 2 log10”.
For TACTtactgacaGCC [LNA9], the “antiviral response, cells pre-treated” value (PR8 (H1N1) virus) was “greater than 4 logs”, the “drop in viral production” value (PR8 (H1N1) virus) was roughly 5 logs and the “suppression of viral titer, post-infection treatment” value (PR8 (H1N1) virus) was “greater than 3 logs”. For the same substance, the “viral inhibition at the lowest dilution” value (PR8 (H1N1) virus) was “greater than 2 logs”, the “drop in viral production” value [1] was roughly 4 logs and the “clinical signs of disease” value (wild-type PR8 virus) was “little-to-no clinical signs of disease”. The “protection from fatal influenza disease (survival)” value (wild-type PR8 virus) was “completely protected”, the recovery of weight (wild-type PR8 virus) was “fully recovered to pre-infection weight” and the weight loss (wild-type PR8 virus) was “minimal weight loss”.
In the case of “TagCAtActtA (TAGCATACTTA; antisense; sugars from the 5' end lddlldldddl, backbone and methylation of C not given here) [LNA3]”, the “effect on viral titer / viral production” value (PR8 (H1N1) virus) is reported as “failed to inhibit viral production” and the “effect on viral titer / viral production” value [1] is reported as “failed to inhibit viral production”.

Reference: patent US12522827B2 (priority 2021, dated 2026)
